Data from patent publication US7585639B1, “Methods for modulating ATP-binding cassette transmembrane reporter protein expression” (Trustees of Dartmouth College, priority 1999, dated 2009).

Columns and labels:
human ΔF508 CFTR = assay: Chloride currents in MDCK-derived cell line stably transfected with human ΔF508 CFTR cDNA (CMV promoter); assay type: cell-based; details: MDCK cell line expressing human ΔF508 CFTR; statistically significant
Description: (§1) The ability of Dox to increase functional expression of ΔF508 CFTR in a similar manner was then assessed. In initial experiments, the effects of Dox on ΔF508 CFTR expression were examined in a canine kidney MDCK-derived cell line that had been stably transfected with a human ΔF508 CFTR cDNA construct expressed under the control of a CMV promoter. As controls, the effects of Dox on CFTR expression in the wild-type parental MDCK-C7 cells from which the stable cell line was derived and an MDCK-derived cell line stably transfected with GFP-tagged wild-type human CFTR also under the control of the CMV promoter were examined. Dox had no effect on chloride currents in either controls.

[1] = tested on: GFP-tagged wild-type human CFTR; assay: Chloride currents in MDCK-derived cell line stably transfected with GFP-tagged wild-type human CFTR (control); assay type: cell-based; details: MDCK cells with GFP-tagged wild-type human CFTR
Description: as §1

GFP-Pgp = details: MDR29 cells
[2] = tested on: MDR4, MDR10, MDR29 and parental MDCK-C7 cells; details: dog, 3 days
Description: Cells were plated in 96 well plates (Fisher, Medford, Mass.) at a density of 1000 cells per well. Twenty-four hours after plating, the cells were dosed with 0-10 μM Dox in serum-free media as described above. The cells were incubated for three days and assayed using the CellTiter 96 AQueous One Solution Reagent (Promega Corp., Madison, Wis.) using the manufacturer's instructions. The data were collected and analyzed using the Softmax software. A cytotoxicity assay was also performed with cisplatin (0-30 μM) as described above.

MDCK-C7 cells = assay: Chloride currents in wild-type parental MDCK-C7 cells (control); assay type: cell-based, canine
Description: as §1

CFTR [3] = assay: Chloride permeability by MQAE fluorescence, T84 cells; assay type: cell-based
Description: (§2) The correlation between increased levels and increased functional CFTR in the cell membrane was also examined either by measuring chloride permeability using MQAE fluorescence or trans-epithelial chloride currents using the Ussing chamber assay. […] Dox increased total cellular CFTR protein levels by 1.6- to 2-fold in T84 cells, and levels were maximal at approximately 18 to 24 hours after treatment. […] Dox increased the amount of cell surface-detectable CFTR by approximately 2.5- to 3-fold in these cells. Dox treatment of T84 cells was also determined to increase CFTR-associated chloride currents by approximately 2.1-fold as measured by the Using chamber assay and to increase chloride permeability by approximately 2-fold as measured by MQAE fluorescence in these cells.

CFTR [4] = assay: Trans-epithelial chloride currents, Ussing chamber assay, T84 cells; assay type: cell-based
Description: as §2

CFTR protein levels = CFTR protein levels by western blotting using anti-CFTR antibodies in T84 cells; assay type: cell-based
Description: as §2

[5] = tested on: wild-type CFTR mRNA expression; assay: CFTR mRNA expression in HT-29 human colon cell line; assay type: cell-based; details: HT-29 cells
Description: Experiments were performed which identified specific agents that increase functional cell surface expression of the ΔF508 CFTR protein. […] However, a rapid increase in CFTR mRNA to 1.5-fold over controls was seen by 48 hours and remained high through the end of the experiment.

Row | SMILES | increase in chloride currents (human ΔF508 CFTR) | effect on chloride currents [1] | membrane Pgp levels (GFP-Pgp; 24-72 hour period after treatment) | cellular GFP levels (GFP-Pgp; compared with Pgp membrane levels) | EC50 for cytotoxicity (colony formation), MDR cell lines relative to parental cell line [2] | effect on chloride currents (MDCK-C7 cells) | increase in chloride permeability (CFTR [3]) | increase in CFTR-associated chloride currents (CFTR [4]) | mature CFTR protein levels (CFTR protein levels) | effect on CFTR mRNA expression ([5]; between 0 and 36 hours after treatment) | increase in CFTR mRNA over controls ([5]; by 48 hours, remained high through end of experiment) | CFTR mRNA expression over a 72 hour period ([5]; single non-toxic treatment, over 72 hours)
1 | COc1cccc2c1C(=O)c1c(O)c3c(c(O)c1C2=O)C[C@@](O)(C(=O)CO)C[C@@H]3O[C@H]1C[C@H](N)[C@H](O)[C@H](C)O1 [Dox, doxorubicin] | approximately 1.7 fold | no effect | progressive and substantial increase | increased earlier and to a greater extent | 2.5-3.5 fold | no effect | approximately 2 fold | approximately 2.1 fold |  |  |  | 
2 | CO[C@@]12[C@H](COC(N)=O)C3=C(C(=O)C(C)=C(N)C3=O)N1C[C@@H]1N[C@@H]12 [MMC, mitomycin C] |  |  |  |  |  |  |  | approximately 1.2 fold | significantly increased | Little or no effect | 1.5 fold | significant increase
